Holding throughout (assay type): in vivo, SCID mice
Assay [1] has as its system human SKM-1 MDS xenograft. The experiment in a line: Subcutaneous human SKM-1 MDS xenograft model (SZ-EF-59-2018). As to conditions: Compound 1 50 mg/kg q.d×21 d p.o., alvocidib 2.5 mg/kg q.d×21 d i.p.; for RTV@ D21 / T/C(%)@D21: day 21. On the procedure:
(§1) SKM-1 human Myelodysplastic Syndromes (MDS) were maintained in vitro as suspension cultures in RPMI 1640 medium supplemented with 20% fetal bovine serum, 100 U/mL penicillin and 100 µg/mL streptomycin. Cells were maintained at 37° C. in an atmosphere of 5% CO2 in air and passaged twice weekly. Tumor cells growing in an exponential growth phase were harvested and counted for tumor inoculation. Each mouse was inoculated subcutaneously at the right flank region with OCI-AML-3 tumor cells (5×10^6) in 0.2 mL of PBS with 50% matrigel, SKM-1 tumor cells (3×10^7) in 0.2 mL of PBS with 50% matrigel, U2932 tumor cells (1×10^7) in 0.2 mL of PBS with 50% matrigel, for tumor development. After tumor cell inoculation, the animals were checked daily for morbidity and mortality. At the time of routine monitoring, the animals were checked for any effects of tumor growth and treatments on normal behavior such as mobility, visual estimation of food and water consumption, body weight gain/loss (body weights were measured twice weekly), eye/hair matting and any other abnormal effect. Death and observed clinical signs were recorded on the basis of the numbers of animals within each subset. The entire procedures of dosing as well as tumor and body weight measurement were conducted in a Laminar Flow Cabinet. Tumor volumes were measured twice weekly in two dimensions using a caliper, and the volume was expressed in mm^3 using the formula: Tumor Volume (mm^3)=0.5a×b^2 Relative tumor volume (RTV) was calculated using the following formula: RTV=Vt/V1 Synergy score was calculated using the following formula described in Clarke R. Issues in experimental design and endpoint analysis in the study of experimental cytotoxic agents in vivo in breast cancer and other models[J]. Breast Cancer Research & Treatment, 1997, 46(2-3):255-278, which is incorporated by reference in its entirety: Synergy score=(([…]); where A: response to treatment A; B: response to treatment B; C: response to vehicle control; AB: combination of treatment A and B. Synergy score>1, synergistic; score=1, additive; score<1, antagonistic. Standard NCI procedures were used to calculate tumor parameters. Percent tumor growth inhibition (% T/C) was calculated as the mean RTV of treated tumors (T) divided by the mean RTV of control tumors (C)×100%. […] In this study, efficacy of combination treatment with Compound 1 and alvocidib was evaluated in human SKM-1 MDS xenograft model (Study No. SZ-EF-59-2018). Dose treatments were started when the mean tumor volume reached 125 mm^3, the dose treatment start day was defined as day 1.
On the technique in general: Xenograft models place foreign cells or tissue in a host animal.

In assay [2] the test system is human U2932 DLBCL xenograft. The experiment in a line: Subcutaneous human U2932 DLBCL xenograft model, combination with alvocidib (SZ-EF-62-2018). The note with it: for antitumor activity (in words) / RTV@ D19 / T/C(%)@D19: Compound 1 50 mg/kg q.d×19 d p.o., alvocidib 2.5 mg/kg q.d×7 d and q.w×2 w i.p.; for RTV@ D19 / T/C(%)@D19: day 19. How it is done:
as §1, with “U2932 DLBCL” for “SKM-1 MDS”, “SZ-EF-62-2018).” for “SZ-EF-59-2018).”

Assay [3] has as its system human OCI-AML-3 AML xenograft. Description: Subcutaneous human OCI-AML-3 AML xenograft model (SZ-EF-42-2018). The note with it: Compound 1 50 mg/kg q.d×15 d p.o., alvocidib 2.5 mg/kg q.d×15 d i.p.; for RTV@ D15 / T/C(%)@ D15: day 15. On the procedure: SKM-1 human Myelodysplastic Syndromes (MDS) were maintained in vitro as suspension cultures in RPMI 1640 medium supplemented with 20% fetal bovine serum, 100 U/mL penicillin and 100 µg/mL streptomycin. Cells were maintained at 37° C. in an atmosphere of 5% CO2 in air and passaged twice weekly. Tumor cells growing in an exponential growth phase were harvested and counted for tumor inoculation. Each mouse was inoculated subcutaneously at the right flank region with OCI-AML-3 tumor cells (5×10^6) in 0.2 mL of PBS with 50% matrigel, SKM-1 tumor cells (3×10^7) in 0.2 mL of PBS with 50% matrigel, U2932 tumor cells (1×10^7) in 0.2 mL of PBS with 50% matrigel, for tumor development. After tumor cell inoculation, the animals were checked daily for morbidity and mortality. At the time of routine monitoring, the animals were checked for any effects of tumor growth and treatments on normal behavior such as mobility, visual estimation of food and water consumption, body weight gain/loss (body weights were measured twice weekly), eye/hair matting and any other abnormal effect. Death and observed clinical signs were recorded on the basis of the numbers of animals within each subset. The entire procedures of dosing as well as tumor and body weight measurement were conducted in a Laminar Flow Cabinet. Tumor volumes were measured twice weekly in two dimensions using a caliper, and the volume was expressed in mm^3 using the formula: Tumor Volume (mm^3)=0.5a×b^2 Relative tumor volume (RTV) was calculated using the following formula: RTV=Vt/V1 Synergy score was calculated using the following formula described in Clarke R. Issues in experimental design and endpoint analysis in the study of experimental cytotoxic agents in vivo in breast cancer and other models[J]. Breast Cancer Research & Treatment, 1997, 46(2-3):255-278, which is incorporated by reference in its entirety: Synergy score=(([…]); where A: response to treatment A; B: response to treatment B; C: response to vehicle control; AB: combination of treatment A and B. Synergy score>1, synergistic; score=1, additive; score<1, antagonistic. Standard NCI procedures were used to calculate tumor parameters. Percent tumor growth inhibition (% T/C) was calculated as the mean RTV of treated tumors (T) divided by the mean RTV of control tumors (C)×100%. […] Alvocidib is a flavonoid alkaloid CDK9 kinase inhibitor, which is the first CDKi under clinical development for the treatment of acute myeloid leukemia. In this study, efficacy of combination treatment with Compound 1 and alvocidib was evaluated in human OCI-AML-3 AML xenograft model (Study No. SZ-EF-42-2018). Dose treatments were started when the mean tumor volume reached 95 mm^3, the dose treatment start day was defined as day 1.

Assay [4] has as its system human U2932 DLBCL xenograft. The experiment in a line: Subcutaneous human U2932 DLBCL xenograft model, combination with dinaciclib (SZ-EF-37-2019). As to conditions: for antitumor activity (in words) / RTV @ D21 (Mean + SEM) / T/C(%)@D21: Compound 1 30 mg/kg, dinaciclib 20 mg/kg; for mRECIST: SD (stable disease): animals with SD / animals in group; for RTV @ D21 (Mean + SEM) / T/C(%)@D21: day 21. On the procedure:
SKM-1 human Myelodysplastic Syndromes (MDS) were maintained in vitro as suspension cultures in RPMI 1640 medium supplemented with 20% fetal bovine serum, 100 U/mL penicillin and 100 µg/mL streptomycin. Cells were maintained at 37° C. in an atmosphere of 5% CO2 in air and passaged twice weekly. Tumor cells growing in an exponential growth phase were harvested and counted for tumor inoculation. Each mouse was inoculated subcutaneously at the right flank region with OCI-AML-3 tumor cells (5×10^6) in 0.2 mL of PBS with 50% matrigel, SKM-1 tumor cells (3×10^7) in 0.2 mL of PBS with 50% matrigel, U2932 tumor cells (1×10^7) in 0.2 mL of PBS with 50% matrigel, for tumor development. Tumor volumes were measured twice weekly in two dimensions using a caliper, and the volume was expressed in mm^3 using the formula: […] Relative tumor volume (RTV) was calculated using the following formula: […] Synergy score was calculated using the following formula described in Clarke R. Issues in experimental design and endpoint analysis in the study of experimental cytotoxic agents in vivo in breast cancer and other models[J]. Breast Cancer Research & Treatment, 1997, 46(2-3):255-278, which is incorporated by reference in its entirety: Synergy score=(([…]); where A: response to treatment A; B: response to treatment B; C: response to vehicle control; AB: combination of treatment A and B. […] Standard NCI procedures were used to calculate tumor parameters. Percent tumor growth inhibition (% T/C) was calculated as the mean RTV of treated tumors (T) divided by the mean RTV of control tumors (C)×100%. […] To confirm the synergistic antitumor effect between Compound 1 and CDK9 inhibitor in DLBCL, we applied combination therapy with Compound 1 plus CDK9 inhibitor dinaciclib in the same human U2932 DLBCL xenograft model, which was established according to embodiment 2.

Structures are written as SMILES. Where “and” joins values, the source holds several entries; their conditions need not be identical. Identical values can stand only once.

As for `CN1CC[C@H](c2c(O)cc(O)c3c(=O)cc(-c4ccccc4Cl)oc23)[C@H](O)C1` [Alvocidib, alvocidib], in assay [1], the “antitumor activity (in words)” value was “no antitumor activity”, the “RTV@ D21” value stood at 17.2 ± 2.1 and the “T/C(%)@D21” value is 78.5%. Besides, in assay [2], the “antitumor activity (in words)” value is given as “antitumor activity”, the “RTV@ D19” value was 1.19 ± 0.27 and the “T/C(%)@D19” value is listed as 25.2%. The “T/C(%)@D19” value in assay [2] (listed as alvocidib) was 30.9%. The “occurrence of CR or PR” value in assay [2] (single arm) is “no CR or PR”. Further, in assay [3], the “antitumor activity (in words)” value is listed as “moderate antitumor activity”, the “RTV@ D15” value came out at 14.0 ± 1.5 and the “T/C(%)@ D15” value is recorded as 58.8%.

Take `O=C(NS(=O)(=O)c1ccc(NC[C@H]2COCCO2)c([N+](=O)[O-])c1)c1ccc(N2CCN(CC3=C(c4ccc(Cl)cc4)CC4(CCC4)CC3)CC2)cc1Oc1cnc2[nH]ccc2c1` [Compound 1, (S)—N-((4-(((1,4-dioxan-2-yl)methyl)amino)-3-nitrophenyl)sulfonyl)-2-((1H-pyrrolo[2,3-b]pyridin-5-yl)oxy)-4-(4-((6-(4-chlorophenyl)spiro[3.5]non-6-en-7-yl)methyl)piperazin-1-yl)benzamide]: in assay [4], the “antitumor activity (in words)” value is “moderate antitumor activity”, the “mRECIST: SD (stable disease)” value was 5/5 SD, the “RTV @ D21 (Mean + SEM)” value is reported as 2.79 ± 0.22 and the “T/C(%)@D21” value is reported as 53.26%. Also, in assay [1], the “antitumor activity (in words)” value is given as “moderate antitumor activity”; the “RTV@ D21” value came out at 14.7 ± 1.5; the “T/C(%)@D21” value is 68.3% and 67.3%. In assay [2], the “antitumor activity (in words)” value is on record as “antitumor activity”, the “RTV@ D19” value worked out at 1.46 ± 0.17 and the “T/C(%)@D19” value turned out to be 30.9%. Also, in assay [3], the “antitumor activity (in words)” value is on record as “no antitumor activity”, the “RTV@ D15” value amounted to 28.6 ± 2.3 and the “T/C(%)@ D15” value came out at 120.2%.

Consider `CCc1cnn2c(NCc3ccc[n+]([O-])c3)cc(N3CCCC[C@H]3CCO)nc12` [Dinaciclib, dinaciclib], for which, in assay [4], the “antitumor activity (in words)” value was “no antitumor activity”, the “mRECIST: SD (stable disease)” value is reported as 3/5, the “RTV @ D21 (Mean + SEM)” value was found to be 3.74 ± 0.58 and the “T/C(%)@D21” value is on record as 71.55%. The “mRECIST: PD (progressive disease)” value in assay [4] (animals with PD / animals in group) is given as 2/5.

The values above are taken from patent US20210275522A1, “PHARMACEUTICAL COMPOSITIONS AND USE THEREOF” (priority 2018, published 2021).
